Earlier results, collected in patent US20100310474A1, “PROTEIN CAGES FOR THE DELIVERY OF MEDICAL IMAGING AND THERAPEUTIC AGENTS” (MONTANA STATE UNIVERSITY, priority 2002, published 2010).

How the values were obtained:
tumor cells = settings: free peptide
[1] = system: experimental tumor lung colonization; settings: free peptide
tumor angiogenesis = settings: mice
platlets and neutrophils = settings: cells bearing 67 kDa LBP

Compound | cytotoxic effects on tumor cells (tumor cells in culture) | invasion of basement membranes by tumor cells (tumor cells) | experimental tumor lung colonization [1] | tumor angiogenesis (tumor angiogenesis) | toxic effect on platelets and neutrophils (platlets and neutrophils)
Cc1ccc(C(=O)Nc2ccc(S(=O)(=O)O)c3cc(S(=O)(=O)O)cc(S(=O)(=O)O)c23)cc1NC(=O)c1cccc(NC(=O)Nc2cccc(C(=O)Nc3cc(C(=O)Nc4ccc(S(=O)(=O)O)c5cc(S(=O)(=O)O)cc(S(=O)(=O)O)c45)ccc3C)c2)c1 [suramin] | cytotoxic effects | – | – | – | –
CDPGYIGSRC [peptide 11] | – | effectively blocks | reduces | inhibits | no toxic effect
